In patent publication US4479951A, “1.4;3.6-Dianhydrohexitol nitrates substituted by purine bases, processes for their preparation and pharmaceutical compositions” (Dr. Willmar Schwabe GmbH & Co., priority 1980, dated 1984):

Key:
[1] = acute toxicity, p.o. and i.p. (footnote of Table VII); assay type: in vivo; details: mouse, in vivo, ip
[2] = tested on: mouse; assay: as above; assay type: in vivo; details: p.o.
[3] = tested on: mongrel cats; assay: heart-circulation effectiveness on narcotised mongrel cats, intraduodenal administration; details: 5 mg/kg intraduodenal
Experimental: The animals were narcotised with a mixture of chloralose-urethane (1.2 g./kg. urethane+40 mg./kg. chloralose administered i.p.). They breathed spontaneously through a tracheal canula. The A. carotis sinistra was used in order to place a catheter tip monometer in the left chamber of the heart. The V. jugularis served for injection purposes. Via the A. femoralis dextra, a catheter was inserted up into the Aorta descendans and connected to a pressure recorder (Statham P 23Db). The heart frequency was recorded with a pulse frequency measurer (Firm Hugo Sachs Elektronik) from the left ventricular pressure signal. A duodenal loop was exposed by laparotomy. The substances to be tested were injected directly into the lumen.

[4] = tested on: guinea pigs; assay: blood pressure-lowering effectiveness on narcotised guinea pigs, intravenous; assay type: in vivo, guinea pig; details: for blood pressure previously: before administration
[5] = tested on: isolated rat aorta preparations; assay: spasmolytic effectiveness, potassium chloride-induced contractions; details: read-out: ED50 potassium chloride spasm
[6] = tested on: isolated rat aorta preparations; assay: spasmolytic effectiveness, noradrenaline-induced contractions; details: read-out: ED50 noradrenaline spasm
[7] = printed on the 0 min line (= change 0 to 10 min)
[8] = printed on the 10 min line (= change 0 to 30 min)
[9] = printed on the 30 min line (= change 0 to 60 min)
[10] = printed on the 60 min line (= change 0 to 120 min)

For `Nc1ncnc2c1ncn2[C@H]1CO[C@H]2[C@@H]1OC[C@@H]2O[N+](=O)[O-]` [1c/2c, 5-(9-Adenyl)-5-desoxy-1.4;3.6-dianhydro-L-iditol 2-nitrate], which LD50 [1] is on record?
The LD50 was 540 mg/kg.

What about the LD70 p.o. mouse [2] of the same compound?
The LD70 p.o. mouse was 1600 mg/kg.

And the blood pressure ([3]; 0 min)?
The blood pressure was 124.2 ± 8.3 mm. Hg.

What about the dp/dt ([3]; 0 min) of the same compound?
The dp/dt was 7220 ± 611 mm sec.

And the heart frequency ([3]; 0 min)?
Its heart frequency is 171.6 ± 6.2 min⁻¹.

And the blood pressure ([3]; 10 min)?
The blood pressure was 108.6 ± 8.5 mm. Hg.

And the dp/dt ([3]; 10 min)?
The dp/dt was 7500 ± 522 mm sec.

What about the heart frequency ([3]; 10 min) of the same compound?
The heart frequency was 180.4 ± 4.3 min⁻¹.

And the blood pressure ([3]; 30 min)?
Its blood pressure is 107.8 ± 8.4 mm. Hg.

What about the dp/dt ([3]; 30 min) of the same compound?
Its dp/dt is 6960 ± 564 mm sec.

And the heart frequency ([3]; 30 min)?
Its heart frequency is 177.2 ± 5.4 min⁻¹.

And the blood pressure ([3]; 60 min)?
The blood pressure was 106.6 ± 7.8 mm. Hg.

And the dp/dt ([3]; 60 min)?
The dp/dt was 7100 ± 721 mm sec.

And the heart frequency ([3]; 60 min)?
Its heart frequency is 177.6 ± 5.1 min⁻¹.

What about the blood pressure ([3]; 120 min) of the same compound?
Its blood pressure is 106.2 ± 5.6 mm. Hg.

And the dp/dt ([3]; 120 min)?
Its dp/dt is 7000 ± 1026 mm sec.

What about the heart frequency ([3]; 120 min) of the same compound?
The heart frequency was 178.8 ± 4.4 min⁻¹.

And the “blood pressure Δ” value [3, 7]?
The value was -15.6 mm. Hg.

And the “dp/dt Δ” value [3, 7]?
The value was “+280 mm sec”.

And the “blood pressure Δ” value [3, 8]?
The value was -16.4 mm. Hg.

And the “dp/dt Δ” value [3, 8]?
Its value is -260 mm sec.

What about the “blood pressure Δ” value [3, 9] of the same compound?
Its value is -17.6 mm. Hg.

And the “dp/dt Δ” value [3, 9]?
The value was -120 mm sec.

What about the “blood pressure Δ” value [3, 10] of the same compound?
Its value is -18.0 mm. Hg.

And the “dp/dt Δ” value [3, 10]?
Its value is -220 mm sec.

And the blood pressure afterwards ([4]; 0.25 mg/kg i.v.)?
The blood pressure afterwards was 50.50 ± 2.33 mm. Hg.

And the “blood pressure Δ” value ([4]; 0.25 mg/kg i.v.)?
Its value is -17.75 mm. Hg.

And the blood pressure previously ([4]; 0.25 mg/kg i.v.)?
The blood pressure previously was 68.25 ± 2.50 mm. Hg.

And the blood pressure afterwards ([4]; 1.00 mg/kg i.v.)?
Its blood pressure afterwards is 41.50 ± 3.97 mm. Hg.

What about the “blood pressure Δ” value ([4]; 1.00 mg/kg i.v.) of the same compound?
Its value is -28.00 mm. Hg.

And the blood pressure previously ([4]; 1.00 mg/kg i.v.)?
The blood pressure previously was 69.50 ± 2.90 mm. Hg.

What about the blood pressure afterwards ([4]; 2.50 mg/kg i.v.) of the same compound?
The blood pressure afterwards was 38.75 ± 2.66 mm. Hg.

What about the “blood pressure Δ” value ([4]; 2.50 mg/kg i.v.) of the same compound?
Its value is -31.25 mm. Hg.

And the blood pressure previously ([4]; 2.50 mg/kg i.v.)?
Its blood pressure previously is 70.00 ± 2.27 mm. Hg.

And the “blood pressure-lowering effectiveness, comparison” value ([4]; i.v.)?
Its value is “even more effective than ISDN”.

What about the IC50 [5] of the same compound?
The IC50 was 2800 nM.

What about the IC50 [6] of the same compound?
Its IC50 is 135 nM.
